{
  "source": "patent US11021501B2",
  "about": "“Creatine phosphate analog prodrugs, compositions and methods of use thereof” (Farmington Pharma Development, priority 2015, dated 2021)",
  "origin": "cited, not measured here",
  "key": {"[1]": {"tested_on": "creatine phosphate levels"}, "[2]": {"settings": "animals fed a diet containing up to 1%"}},
  "note": "Where two headings read alike, the source gives them in different places.",
  "data": [
    {"smiles": "CN(CC(=O)O)C(=N)N", "note": "[creatine]", "values": [
      {"measurement": "overall increase of creatine phosphate levels", "setting": "[1]; creatine supplementation over weeks", "result": "< 50", "unit": "%"},
      {"measurement": "duration of increase in tissue creatine phosphate levels", "setting": "[1]; following oral creatine supplementation", "result": "> 14", "unit": "days"},
      {"measurement": "increase of cerebral creatine phosphate", "setting": "[1]; healthy volunteers, oral creatine administration", "result": "about 10%"}
    ]},
    {"smiles": "CN(CC(=O)O)C(=N)NP(=O)(O)O", "note": "[Creatine phosphate, creatine phosphate]", "values": [
      {"measurement": "adverse side effects", "setting": "patients with cardiac diseases, intravenous injection up to 8 gm/day", "result": "without adverse side effects"}
    ]},
    {"smiles": "NC1=NCCN1CC(=O)O", "note": "[cyclocreatine]", "values": [
      {"measurement": "adverse effects", "setting": "[2]", "result": "do not exhibit adverse effects"}
    ]},
    {"smiles": "CN(CC(=O)O)C(=N)N.O", "note": "[creatine monohydrate]", "values": [
      {"measurement": "adverse side effects", "setting": "athletes and body builders, 2-3 gm/day", "result": "without adverse side effects"}
    ]}
  ]
}
